Measurements from paper PMC4657899, “Design, Synthesis and In Vitro Activity of Anticancer Styrylquinolines. The p53 Independent Mechanism of Action” (PLoS ONE, 2015).
One block for each compound: values may come before it.

Assays:
HCT116 (p53+/+) = assay: MTS anti-proliferative assay, HCT116 (p53+/+); format: cell-based, human; settings: mean ± SD
Protocol: (§1) The human colon adenocarcinoma cell line HCT116 along with wild type p53 (p53^+/+) were obtained from the ATCC. The normal human fibroblast cell line GM 07492 and HCT116 with a p53 deletion (p53^-/-) were kindly provided by prof. M. Rusin from Maria Sklodowska-Curie Memorial Cancer Center and Institute of Oncology in Gliwice, Poland. Cells were grown as monolayer cultures in 75 cm^2 flasks (Nunc) in Dulbecco’s modified Eagle’s medium with an antibiotic gentamicin (200 μL/100 mL medium). DMEM for HCT116 were supplemented with 12% heat-inactivated fetal bovine serum (Gibco) and for GM 07492 with 15% fetal bovine serum (Gibco). Cells were cultured under standard conditions at 37°C in a humidified atmosphere at 5% CO2.
(§2) The cells were seeded in 96-well plates 24 h before the addition of the compounds that were tested. The assay was performed following a 72 h incubation with varying concentrations of the agents that were tested. The results were calculated as IC50 values (using GraphPad Prism 5). Each individual compound was tested in triplicate in a single experiment with each experiment being repeated three times. After a 72 h incubation with the compounds that were tested, 20 μL of The CellTiter 96®AQueous One Solution—MTS (Promega) solution was added to each well (with 100 μL DMEM without phenol red) and incubated for 1 h at 37°C. The optical densities of the samples were analyzed at 490 nm. Results were expressed as a percentage of the control.

HCT116 (p53-/-) = assay: MTS anti-proliferative assay, HCT116 (p53-/-); format: cell-based, human; settings: for IC50: MTS, 72 h incubation, mean ± SD; for times more effective against HCT116 (p53-/-) than against wild type cells: ratio of MTS IC50 values
Protocol: as §1, §2

GM 07492 = assay: MTS cytotoxicity assay, normal fibroblasts GM 07492; format: cell-based; settings: 72 h incubation, normal human fibroblasts, mean ± SD
Protocol: as §1, §2

colon cancer cells = tested on: colon cancer cells; parameters: method as in Arafa et al.; settings: ref Arafa et al.; cited from earlier work
SK-N-MC cell line = tested on: SK-N-MC cell line; parameters: method as in PMID 17142046; settings: cited from earlier work
HCT116 +/+ = assay: Trypan blue staining test, HCT116 +/+; format: cell-based, human; settings: S2 Table, trypan blue cell counting, 72 h
Protocol: (§3) The cells were seeded in 3 cm Petri dishes (Nunc) and incubated at 37°C. After 24h, solutions […]
(§4) a 72 h incubation with tested compounds, the cells were trypsinize d with 0.05% Trypsin -EDTA solution (Sigma). Then, 90µl of suspension cells transferred into 96 -well plate containing 10µl Trypan blue reagent in wells. The cells were counted under an optical inverted microscope Olympus CKX31. The results from three independent experiment were calculated as IC 50 values using GraphPad Prism 5 software.

HCT116 -/- = assay: Trypan blue staining test, HCT116 -/-; format: cell-based, human; settings: S2 Table, trypan blue cell counting, 72 h
Protocol: as §3, §4

Calf-thymus DNA (CT-DNA) = assay: Spectrophotometric DNA binding (intercalation) study with CT-DNA
Protocol: For the DNA binding studies, Calf-thymus DNA (CT-DNA) was purchased from Sigma Aldrich. The lyophilized CT-DNA was dissolved in 10 mM Tris-HCl, pH 7.9, mixed gently and left overnight at 4°C. Then, the concentration of CT-DNA was determined from the absorbance at 260 nm using an extinction coefficient of 6600 M^-1cm^-1. […] Afterwards, 18 μM CT-DNA was added to the prepared solutions and were incubated for 1.5 h at 37°C with occasional vortexing. Absorption spectra were measured using a Hitachi U-2900 spectrophotometer in range of 200–600 nm. All absorption spectra were imported and compared in OriginPro 8.0.

[1] = tested on: caspase-3 and -7 in HCT116 (p53-/-) cells; assay: Caspase-Glo 3/7 assay, HCT116 (p53-/-); format: cell-based, human; settings: IC50 concentration, 48 h
Protocol: (§5) To measure caspase-3 and -7 activities, a luminescent Caspase-Glo 3/7 assay was performed. HCT116 (p53^+/+) and (p53^-/-) cells were seeded onto black 96-well plates at a density of 3,500 cells/well. […] After 48 h a Caspase-Glo 3/7 Assay (Promega) was performed according to the manufacturer’s instructions. After adding 100 μL of Caspase3/7 GloReagent, cells were incubated for 2.5 h at room temperature. The luminescence was measured using a multi-plate reader (Synergy 4, Bio Tek) with an integration time of 1 second per well. The experiments were performed in duplicate.

[2] = tested on: caspase-3 and -7 in HCT116 (p53+/+) cells; assay: Caspase-Glo 3/7 assay, HCT116 (p53+/+); format: cell-based, human; settings: IC50 concentration, 48 h, relative to doxorubicin
Protocol: as §5

HCT116 p53-/- cells = tested on: HCT116 p53-/- cells; parameters: method as in PMID 12027451; settings: cited from earlier work
[3] = Homo sapiens, HCT-116, 72 h incubation
[4] = 18 μM CT-DNA, CP-31398 absorption band 350

IC50 (HCT116 (p53+/+); [3]): > 25 µM | IC50 (HCT116 (p53-/-); Homo sapiens, HCT-116): > 25 µM | melting point: 273 °C
Structure (SMILES): Oc1ccc(C=Cc2ccc3cccc(O)c3n2)c(O)c1 [20b, 2 – [2-(2,4-Dihydroxyphenyl)vinyl]quinolin-8-ol]

IC50 (HCT116 (p53+/+); 72 h incubation): 17.4 ± 2.2 µM | IC50 (HCT116 (p53-/-)): 14.1 ± 2.24 µM
Structure (SMILES): Oc1ccccc1C=Cc1ccc2ccccc2n1 [1a]
IC50 (GM 07492): > 25 µM

IC50 (HCT116 (p53+/+); [3]): 12.1 ± 3.02 µM | IC50 (HCT116 (p53-/-); Homo sapiens, HCT-116): 5.78 ± 0.78 µM | melting point: 117 °C
Structure (SMILES): CC(=O)Oc1cccc2ccc(C=Cc3ccccc3F)nc12 [12b]
times more effective against HCT116 (p53-/-) than against wild type cells (HCT116 (p53-/-)): 2–3 times | IC50 (GM 07492; Fibroblast): > 25 µM

IC50 (HCT116 (p53+/+); [3]): 16.3 µM | IC50 (HCT116 (p53-/-); Homo sapiens, HCT-116): 10.6 ± 1.23 µM
Structure (SMILES): Oc1cccc(C=Cc2ccc3cccc(O)c3n2)c1 [19b, 2 – [2-(3-Hydroxyphenyl)vinyl]quinolin-8-ol]

IC50 (HCT116 (p53+/+); [3]): 18.6 ± 0.92 µM | IC50 (HCT116 (p53-/-); Homo sapiens, HCT-116): 26.3 ± 1.41 µM
Structure (SMILES): COc1ccc(/C=C/c2nc(NCCCN(C)C)c3ccccc3n2)cc1 [CP-31398]
IC50 (GM 07492; Fibroblast): 12.3 ± 0.54 µM | % hypochromism (Calf-thymus DNA (CT-DNA); 18 μM CT-DNA, 1.5 h 37°C, Tris-HCl pH 7.9, at the (first) absorption band (CP-31398: 312)): 41,4% | % hypochromism, second absorption band (Calf-thymus DNA (CT-DNA); [4]): 37,4% | Δε, second absorption band (Calf-thymus DNA (CT-DNA); [4]): 1693,3 M−1 cm−1 | Δε (Calf-thymus DNA (CT-DNA); 18 μM CT-DNA, at the (first) absorption band (CP-31398: 312)): 1515,6 M−1 cm−1 | shift of the wavelength of maximum absorption, alone vs DNA-bound (Calf-thymus DNA (CT-DNA); S3 Table, 18 μM CT-DNA): 0 | Changes in absorbance (Calf-thymus DNA (CT-DNA); S3 Table, with CT-DNA): hypochromism | Caspase-3/7 activity in p53-/- cells [1]: did not increase the activity of caspases | Caspase-3/7 activity in wild type cells [2]: two times higher than doxorubicin | activity against HCT116 p53-/- cells versus wild-type (p53+/+) (HCT116 p53-/- cells): several times less active

Further lines, the compound ahead of its results:

Structure (SMILES): CC(=O)Oc1ccccc1C=Cc1ccc2cccc(OC(C)=O)c2n1 [2b]
IC50 (HCT116 (p53+/+); 72 h incubation): 8.08 ± 0.56 µM | IC50 (HCT116 (p53-/-)): 14.7 ± 1.74 µM | IC50 (GM 07492): 6.92 ± 1.72 µM

Structure (SMILES): COc1cc(/C=N/NC(=O)COc2c(Br)cc(Br)c3cccnc23)cnc1O [III]
IC50 (colon cancer cells): 4.7 µM

Structure (SMILES): Oc1cccc2ccc(/C=C/c3ccc(Cl)cc3)nc12 [I]
IC50 (SK-N-MC cell line): 0.77 µM

Structure (SMILES): CC(=O)Oc1cc(OC(C)=O)c(C=Cc2ccc3cccc(OC(C)=O)c3n2)c(OC(C)=O)c1 [10b]
IC50 (HCT116 (p53+/+); [3]): > 25 µM | IC50 (HCT116 (p53-/-); Homo sapiens, HCT-116): > 25 µM | melting point: 189 °C

Structure (SMILES): CCCCOc1ccc(C=Cc2ccc3ccccc3n2)cc1 [3a]
IC50 (HCT116 (p53+/+); 72 h incubation): > 25 µM | IC50 (HCT116 (p53-/-)): > 25 µM | IC50 (HCT116 +/+): > 25 µM | IC50 (HCT116 -/-): > 25 µM

Structure (SMILES): CCOc1ccc(C=Cc2ccc3ccccc3n2)cc1 [2a]
IC50 (HCT116 (p53+/+); [3]): > 25 µM | IC50 (HCT116 (p53-/-); Homo sapiens, HCT-116): > 25 µM

Structure (SMILES): Oc1cc(O)c(C=Cc2ccc3cccc(O)c3n2)c(O)c1 [9b]
IC50 (HCT116 (p53+/+); 72 h incubation): > 25 µM | IC50 (HCT116 (p53-/-)): > 25 µM

Structure (SMILES): Oc1cccc2ccc(C=Cc3ccccc3F)nc12 [11b]
IC50 (HCT116 (p53+/+); [3]): 15.4 ± 2.46 µM | IC50 (HCT116 (p53-/-); Homo sapiens, HCT-116): 8.38 ± 1.12 µM | times more effective against HCT116 (p53-/-) than against wild type cells (HCT116 (p53-/-)): 2–3 times | IC50 (GM 07492; Fibroblast): > 25 µM | melting point: 239 °C

Structure (SMILES): CCOc1ccc(C=Cc2ccc3cccc(O)c3n2)cc1 [16b, 2 – [2-(4-Ethoxyphenyl)vinyl]quinolin-8-ol]
IC50 (HCT116 (p53+/+); [3]): > 25 µM | IC50 (HCT116 (p53-/-); Homo sapiens, HCT-116): 16.1 ± 4.84 µM | melting point: 130 °C
